Tests used:
[1] = test system: human malignant pleural mesothelioma cell lines (NCI-H28, NCI-H2052, NCI-H2452 and MSTO-211H cells); test: MTT cell viability assay, malignant mesothelioma cell lines; type: cell-based; conditions: 24 hr
Source text: Cancer cells (NCI-H28, NCI-H2052, NCI-H2452 and MSTO-211H) treated or not treated with a given concentration of each test compound for 24 hr were subjected to MTT assay. […] As a control, MTT intensity of the cells not treated with any of naftopidil and the aryloxy derivative of the present invention was used.
NCI-H28, NCI-H2052, NCI-H2452 and MSTO-211H cells were used as human malignant pleural mesothelioma cell lines. These cells were purchased from American Type Culture Collection (Manassas, Va., USA). The cells were cultured in RPMI (Roswell Park Memorial Institute)-1640 medium added with 0.003% (W/V) L-glutamine.
(§1) In all cultures, the medium was supplied with 10% (v/v) heat inactivated bovine serum, penicillin (final concentration 100 U/ml) and streptomycin (final concentration 0.1 mg/ml), and culture was performed at 37° C. under humidification atmosphere of 5% CO2 and 95% air.
(§2) The cell viability was measured by a method using MTT (3-(4,5-dimethyl-2-thiazolyl)-2,5-diphenyl-2H-tetrazolium bromide) in the same manner as in a published report (Cell Physiol Biochem 2012; 30: 61-74).

[2] = test system: human prostate cancer cell lines (DU145, LNCap, and PC-3 cells); test: MTT cell viability assay, prostate cancer cell lines; type: cell-based; conditions: 1-100 μM, 24 hr
Source text: (§3) The following cell lines treated or not treated with a given concentration of HUHS1015 for 24 hr were subjected to MTT assay. (A) lung cancer cell line (B) liver cancer cell line (C) gastric cancer cell line (D) bladder cancer cell line (E) prostate cancer cell line (F) kidney cancer cell line. […] As a control, MTT intensity of the cells not treated with HUHS1015 was used.
DU145 cells, LNCap cells and PC-3 cells were used as human prostate cancer cell lines. These cells were purchased from American Type Culture Collection. The DU145 cells were cultured in DMEM. The LNCaP and PC-3 cells were cultured in RPMI-1640 medium.
as §1, §2

[3] = test system: human bladder cancer cell lines (253J, 5637, KK-47, TCCSUP, T24, and UM-UC-3 cells); test: MTT cell viability assay, bladder cancer cell lines; type: cell-based; conditions: T24, UM-UC-3 cells, 1-100 μM, 24 hr
Source text: as §3
253J cells, 5637 cells, KK-47 cells, TCCSUP cells, T24 cells and UM-UC-3 cells were used as human bladder cancer cell lines.
KK-47 cells were provided by Dr. Naito (Department of Urology, Kyushu University, Fukuoka, Japan). 253J cells, 5637 cells, TCCSUP cells, T24 cells and UM-UC-3 cells were purchased from American Type Culture Collection (Manassas, Va., USA). All cells were cultured in RPMI-1640 medium.
as §1, §2

[4] = test system: MKN45 gastric cancer cells; test: Growth of subcutaneously inoculated MKN45 gastric cancer cells in nude mouse; type: in vivo; conditions: nude BALB/c-nu/nu mouse, MKN45 subcutaneous, 0.23 mg/mouse 25 μM intraperitoneal twice per week, day 33
Procedure: MKN45 gastric cancer cells were subcutaneously inoculated into the flank of mouse, and 1 week later (day 0), 25 μM of HUHS1015 and 25 μM of naftopidil were intraperitoneally administered (twice/1 week). As a control, a mouse administered with saline was used. The time-course changes (A) of the tumor volume (mean±SEM, n=7) and the results (B) of tumor weight (mean±SEM, n=7) after the lapse of 33 days are shown. P value, Dunnett's test. NS, not significant
Nude BALB/c-nu/nu mouse (male, 6 week-old) was purchased from Japan SLC, Inc. (Shizuoka, Japan). MKN45 cells (1×10^7 cells) were suspended in a culture medium (200 μl) containing Matrigel (BD Biosciences, San Jose, Calif., USA) and subcutaneously inoculated to the flank of the mouse under general anesthesia with pentobarbital. HUHS1015 (0.23 mg/mouse 25 μM) or naftopidil (0.25 mg/mouse 25 μM) was diluted with saline. At 1 week (Day 0) after inoculation, intraperitoneal administration of saline, HUHS1015 or naftopidil twice per week was started. The longitudinal length (L) and transverse length (S) of the inoculated tumor were measured with calipers, and the tumor volume (V) was calculated from the following formula: V=L×S^2×1/2 The mouse was sacrificed on day 33, the tumor was isolated and the weight thereof was measured.

[5] = test system: human liver cancer cell lines (HepG2 and HuH-7 cells); test: MTT cell viability assay, liver cancer cell lines; type: cell-based; conditions: HepG2, HuH-7 cells, 1-100 μM, 24 hr
Source text: as §3
HepG2 cells and HuH-7 cells were used as human […] cancer cell lines. These cells were obtained from RIKEN cell bank (Ibaraki, Japan) and cultured in DMEM (Dulbecco's Modified Eagles Medium).
as §1, §2

[6] = test system: human lung cancer cell lines (A549, SBC-3, and Lu-65 cells); test: MTT cell viability assay, lung cancer cell lines; type: cell-based; conditions: A549, SBC-3, Lu-65 cells, 1-100 μM, 24 hr
Source text: as §3
A549, SBC-3 and Lu-65 cells were used as human lung cancer cell lines. These cells were purchased from Health Science Research Resources Bank (Osaka, Japan). A549 cells and SBC-3 cells were cultured in MEM (minimum essential medium) added with 0.1 mM non-essential amino acid, and Lu-65 cells were cultured in RPMI-1640 medium.
as §1, §2

[7] = test system: human gastric cancer cell lines (MKN-28 and MKN-45 cells); test: MTT cell viability assay, gastric cancer cell lines; type: cell-based; conditions: MKN-28, MKN-45 cells, 1-100 μM, 24 hr
Source text: as §3
MKN-28 cells and MKN-45 cells were used as human gastric cancer cell lines. These cells were obtained from Dr. Tatematsu (Nagoya University, Japan) and cultured in RPMI-1640 medium.
as §1, §2

[8] = test system: human kidney cancer cell lines (ACHN, RCC4-VHL, and 786-O cells); test: MTT cell viability assay, kidney cancer cell lines; type: cell-based; conditions: 1-100 μM, 24 hr
Source text: as §3
ACHN cells, RCC4-VHL cells and 786-O cells were used as human kidney cancer cell lines. These cells were purchased from European Collection of Animal Cell Cultures (ECACC; Salisbury, UK), and cultured in DMEM.
as §1, §2

[9] = malignant mesothelioma cell lines, 1-100 μM

## COc1ccccc1N1CCN(CC(O)COc2cccc3ccccc23)CC1 (racemic) [naftopidil, (±)-1-[4-(2-methoxyphenyl)piperazinyl]-3-(1-naphthyloxy)propan-2-ol, reference compound]
[1]; all examined malignant mesothelioma cell lines, 1-100 μM
  cell viability (MTT): reduced the cell viability in a concentration dependent manner
[1]; malignant mesothelioma cell lines, concentration of 100 µM, % control
  cell viability (MTT): ~0%

## COc1cccc(N2CCN(CC(O)COc3cccc4ccccc34)CC2)c1 (stereo not shown) [HUHS1002, 1-(4-(3-methoxyphenyl)piperazinyl)-3-(1-naphthyloxyl)propan-2-ol, reference compound]
[1]; [9]
  activity in reducing cell viability (MTT): high activity

## OC(COc1cccc2ccccc12)CN1CCN(c2ccccc2)CC1 (stereo not shown) [HUHS1004, 3-(1-naphthyloxy)-1-(4-phenylpiperazinyl)propan-2-ol]
[1]; [9]
  activity in reducing cell viability (MTT): high activity

## OC(COc1cccc2ccccc12)CN1CCN(c2ccccc2Cl)CC1 (stereo not shown) [HUHS1014, 1-(4-(2-chlorophenyl)piperazinyl)-3-(1-naphthyloxy)-propan-2-ol]
[1]; [9]
  activity in reducing cell viability (MTT): high activity

## COc1ccccc1NCCNCC(O)COc1cccc2ccccc12 (stereo not shown) [HUHS1015, 1-((2-((2-methoxyphenyl)amino)ethyl)amino)-3-(1-naphthyloxy)propan-2-ol]
[2]
  cell viability (MTT): reduced the cell viability in a concentration dependent manner
[3]
  cell viability (MTT): reduced the cell viability in a concentration dependent manner
[4]
  antitumor effect on gastric cancer (tumor volume, tumor weight): superior to naftopidil
[5]
  cell viability (MTT): reduced the cell viability in a concentration dependent manner
[6]
  cell viability (MTT): reduced the cell viability in a concentration dependent manner
[1]; [9]
  activity in reducing cell viability (MTT): high activity
[7]
  cell viability (MTT): reduced the cell viability in a concentration dependent manner
[8]
  cell viability (MTT): reduced the cell viability in a concentration dependent manner

## COc1ccccc1C1CCN(CC(O)COc2cccc3ccccc23)CC1 (stereo not shown) [HUHS1017, 1-(4-(2-methoxyphenyl)piperidin-1-yl)-3-(1-naphthyloxyl)propan-2-ol]
[1]; [9]
  activity in reducing cell viability (MTT): high activity

## CCCCCCCN1CCN(CC(O)COc2cccc3ccccc23)CC1 (stereo not shown) [HUHS1018, 1-(4-heptylpiperazinyl)-3-(1-naphthyloxyl)propan-2-ol]
[1]; [9]
  activity in reducing cell viability (MTT): high activity

## CCCCCCCCN1CCN(CC(O)COc2cccc3ccccc23)CC1 (stereo not shown) [HUHS1019, 3-(1-naphthyloxy)-1-(4-octylpiperazinyl)propan-2-ol]
[1]; [9]
  activity in reducing cell viability (MTT): high activity
